≈ marks a conversion by molar mass, not a printed value.
Assays:
Format in all cases: functional
[1] = test system: Streptococcus viridans; experiment: Antibacterial activity against penicillin-nonsusceptible Streptococcus viridans by CLSI M7-A7 broth microdilution method
[2] = test system: Staphylococcus aureus; experiment: Antibacterial activity against methicillin-susceptible Staphylococcus aureus assessed as resistant isolates by CLSI M7-A7 broth microdilution method
[3] = test system: Staphylococcus aureus; experiment: Antibacterial activity against coagulase-negative and oxacillin-resistant Staphylococcus aureus assessed as resistant isolates by CLSI M7-A7 broth microdilution method
[4] = test system: Streptococcus pneumoniae; experiment: Antibacterial activity against penicillin-resistant Streptococcus pneumoniae assessed as resistant isolates by CLSI M7-A7 broth microdilution method
[5] = test system: Streptococcus agalactiae; experiment: Antibacterial activity against erythromycin-susceptible Streptococcus agalactiae by CLSI M7-A7 broth microdilution method
[6] = test system: Enterococcus faecium; experiment: Antibacterial activity against vancomycin-resistant Enterococcus faecium by CLSI M7-A7 broth microdilution method
[7] = test system: Enterococcus faecium; experiment: Antibacterial activity against vancomycin-resistant Enterococcus faecium assessed as resistant isolates by CLSI M7-A7 broth microdilution method
[8] = test system: Streptococcus pneumoniae; experiment: Antibacterial activity against penicillin-resistant Streptococcus pneumoniae assessed as susceptible isolates by CLSI M7-A7 broth microdilution method
[9] = test system: Staphylococcus aureus; experiment: Antibacterial activity against methicillin-resistant Staphylococcus aureus assessed as susceptible isolates by CLSI M7-A7 broth microdilution method
[10] = test system: Staphylococcus aureus; experiment: Antibacterial activity against coagulase-negative and oxacillin-resistant Staphylococcus aureus assessed as susceptible isolates by CLSI M7-A7 broth microdilution method
[11] = test system: Streptococcus viridans; experiment: Antibacterial activity against penicillin-susceptible Streptococcus viridans by CLSI M7-A7 broth microdilution method
[12] = test system: Streptococcus agalactiae; experiment: Antibacterial activity against erythromycin-susceptible Streptococcus agalactiae assessed as susceptible isolates by CLSI M7-A7 broth microdilution method
[13] = test system: Staphylococcus aureus; experiment: Antibacterial activity against methicillin-susceptible Staphylococcus aureus assessed as susceptible isolates by CLSI M7-A7 broth microdilution method
[14] = test system: Enterococcus faecalis; experiment: Antibacterial activity against vancomycin-resistant Enterococcus faecalis assessed as resistant isolates by CLSI M7-A7 broth microdilution method
[15] = test system: Enterococcus faecalis; experiment: Antibacterial activity against vancomycin-susceptible Enterococcus faecalis by CLSI M7-A7 broth microdilution method
[16] = test system: Enterococcus faecium; experiment: Antibacterial activity against vancomycin-resistant Enterococcus faecium assessed as susceptible isolates by CLSI M7-A7 broth microdilution method
[17] = test system: Enterococcus faecalis; experiment: Antibacterial activity against vancomycin-susceptible Enterococcus faecalis assessed as resistant isolates by CLSI M7-A7 broth microdilution method
[18] = test system: Pasteurella multocida; experiment: Antibacterial activity against Pasteurella multocida by CLSI M7-A7 broth microdilution method
[19] = test system: Enterococcus faecalis; experiment: Antibacterial activity against vancomycin-resistant Enterococcus faecalis assessed as susceptible isolates by CLSI M7-A7 broth microdilution method
[20] = test system: Enterococcus faecalis; experiment: Antibacterial activity against vancomycin-resistant Enterococcus faecalis by CLSI M7-A7 broth microdilution method
[21] = test system: Moraxella catarrhalis; experiment: Antibacterial activity against beta lactamase-positive Moraxella catarrhalis assessed as resistant isolates by CLSI M7-A7 broth microdilution method
[22] = test system: Moraxella catarrhalis; experiment: Antibacterial activity against beta lactamase-positive Moraxella catarrhalis assessed as susceptible isolates by CLSI M7-A7 broth microdilution method
[23] = test system: Streptococcus viridans; experiment: Antibacterial activity against penicillin-susceptible Streptococcus viridans assessed as susceptible isolates by CLSI M7-A7 broth microdilution method
[24] = test system: Pasteurella multocida; experiment: Antibacterial activity against Pasteurella multocida assessed as susceptible isolates by CLSI M7-A7 broth microdilution method
[25] = test system: Streptococcus viridans; experiment: Antibacterial activity against penicillin-susceptible Streptococcus viridans assessed as resistant isolates by CLSI M7-A7 broth microdilution method
[26] = test system: Streptococcus pyogenes; experiment: Antibacterial activity against erythromycin-nonsusceptible Streptococcus pyogenes assessed as susceptible isolates by CLSI M7-A7 broth microdilution method
[27] = test system: Pasteurella multocida; experiment: Antibacterial activity against Pasteurella multocida assessed as resistant isolates by CLSI M7-A7 broth microdilution method
[28] = test system: Streptococcus pyogenes; experiment: Antibacterial activity against erythromycin-nonsusceptible Streptococcus pyogenes by CLSI M7-A7 broth microdilution method
[29] = test system: Streptococcus pyogenes; experiment: Antibacterial activity against erythromycin-susceptible Streptococcus pyogenes by CLSI M7-A7 broth microdilution method
[30] = test system: Enterococcus faecalis; experiment: Antibacterial activity against vancomycin-susceptible Enterococcus faecalis assessed as susceptible isolates by CLSI M7-A7 broth microdilution method
[31] = test system: Streptococcus pneumoniae; experiment: Antibacterial activity against penicillin-susceptible Streptococcus pneumoniae assessed as susceptible isolates by CLSI M7-A7 broth microdilution method
[32] = test system: Staphylococcus aureus; experiment: Antibacterial activity against coagulase-negative and oxacillin-resistant Staphylococcus aureus by CLSI M7-A7 broth microdilution method
[33] = test system: Staphylococcus aureus; experiment: Antibacterial activity against methicillin-susceptible Staphylococcus aureus by CLSI M7-A7 broth microdilution method
[34] = test system: Staphylococcus aureus; experiment: Antibacterial activity against coagulase-negative and oxacillin-susceptible Staphylococcus aureus assessed as susceptible isolates by CLSI M7-A7 broth microdilution method
[35] = test system: Streptococcus pyogenes; experiment: Antibacterial activity against erythromycin-susceptible Streptococcus pyogenes assessed as susceptible isolates by CLSI M7-A7 broth microdilution method
[36] = test system: Streptococcus pyogenes; experiment: Antibacterial activity against erythromycin-nonsusceptible Streptococcus pyogenes assessed as resistant isolates by CLSI M7-A7 broth microdilution method
[37] = test system: Staphylococcus aureus; experiment: Antibacterial activity against methicillin-resistant Staphylococcus aureus assessed as resistant isolates by CLSI M7-A7 broth microdilution method
[38] = test system: Streptococcus agalactiae; experiment: Antibacterial activity against erythromycin-nonsusceptible Streptococcus agalactiae by CLSI M7-A7 broth microdilution method
[39] = test system: Staphylococcus aureus; experiment: Antibacterial activity against methicillin-resistant Staphylococcus aureus by CLSI M7-A7 broth microdilution method
[40] = test system: Moraxella catarrhalis; experiment: Antibacterial activity against beta lactamase-positive Moraxella catarrhalis by CLSI M7-A7 broth microdilution method
[41] = test system: Streptococcus pneumoniae; experiment: Antibacterial activity against penicillin-resistant Streptococcus pneumoniae by CLSI M7-A7 broth microdilution method
[42] = test system: Staphylococcus aureus; experiment: Antibacterial activity against coagulase-negative and oxacillin-susceptible Staphylococcus aureus by CLSI M7-A7 broth microdilution method
[43] = test system: Staphylococcus aureus; experiment: Antibacterial activity against coagulase-negative and oxacillin-susceptible Staphylococcus aureus assessed as resistant isolates by CLSI M7-A7 broth microdilution method
[44] = test system: Streptococcus agalactiae; experiment: Antibacterial activity against erythromycin-nonsusceptible Streptococcus agalactiae assessed as susceptible isolates by CLSI M7-A7 broth microdilution method
[45] = test system: Streptococcus viridans; experiment: Antibacterial activity against penicillin-nonsusceptible Streptococcus viridans assessed as susceptible isolates by CLSI M7-A7 broth microdilution method
[46] = test system: Streptococcus agalactiae; experiment: Antibacterial activity against erythromycin-nonsusceptible Streptococcus agalactiae assessed as resistant isolates by CLSI M7-A7 broth microdilution method
[47] = test system: Streptococcus viridans; experiment: Antibacterial activity against penicillin-nonsusceptible Streptococcus viridans assessed as resistant isolates by CLSI M7-A7 broth microdilution method
[48] = test system: Streptococcus pneumoniae; experiment: Antibacterial activity against penicillin-susceptible Streptococcus pneumoniae by CLSI M7-A7 broth microdilution method
[49] = test system: Streptococcus pneumoniae; experiment: Antibacterial activity against penicillin-susceptible Streptococcus pneumoniae assessed as resistant isolates by CLSI M7-A7 broth microdilution method

## CC[C@H]1OC(=O)[C@H](C)[C@@H](O[C@H]2C[C@@](C)(OC)[C@@H](O)[C@H](C)O2)[C@H](C)[C@@H](O[C@@H]2O[C@H](C)C[C@H](N(C)C)[C@H]2O)[C@](C)(O)C[C@@H](C)C(=O)[C@H](C)[C@@H](O)[C@]1(C)O [ERYTHROMYCIN]
[1]
  MIC50: 2 µg/mL (≈ 2.73 µM)
  MIC90: > 16 µg/mL
[2]
  Activity: 32.5%
[3]
  Activity: 81.3%
[4]
  Activity: 71.6%
[5]
  MIC50: 0.03 µg/mL (≈ 0.0409 µM)
  MIC90: 0.06 µg/mL (≈ 0.0818 µM)
[6]
  MIC50: > 8 µg/mL
  MIC90: > 8 µg/mL
[7]
  Activity: 92.3%
[8]
  Activity: 28.4%
[9]
  Activity: 4.5%
[10]
  Activity: 18.4%
[11]
  MIC50: 0.06 µg/mL (≈ 0.0818 µM)
  MIC90: 4 µg/mL (≈ 5.45 µM)
[12]
  Activity: 100%
[13]
  Activity: 65.2%
[14]
  Activity: 96%
[15]
  MIC50: > 8 µg/mL
  MIC90: > 8 µg/mL
[16]
  Activity: 0%
[17]
  Activity: 59.9%
[18]
  MIC50: 2 µg/mL (≈ 2.73 µM)
  MIC90: 4 µg/mL (≈ 5.45 µM)
[19]
  Activity: 0%
[20]
  MIC: > 1 µg/mL
[21]
  Activity: 0%
[22]
  Activity: 100%
[23]
  Activity: 58.6%
[24]
  Activity: 4.5%
[25]
  Activity: 40.2%
[26]
  Activity: 0%
[27]
  Activity: 77.3%
[28]
  MIC50: 8 µg/mL (≈ 10.9 µM)
  MIC90: > 16 µg/mL
[29]
  MIC50: 0.03 µg/mL (≈ 0.0409 µM)
  MIC90: 0.06 µg/mL (≈ 0.0818 µM)
[30]
  Activity: 10.2%
[31]
  Activity: 89.1%
[32]
  MIC50: > 8 µg/mL
[33]
  MIC50: 0.5 µg/mL (≈ 0.681 µM)
  MIC90: > 8 µg/mL
[34]
  Activity: 49.8%
[35]
  Activity: 100%
[36]
  Activity: 80%
[37]
  Activity: 94.4%
[38]
  MIC50: 16 µg/mL (≈ 21.8 µM)
  MIC90: > 16 µg/mL
[39]
  MIC50: > 8 µg/mL
[40]
  MIC: ≤ 0.12 µg/mL
  MIC50: ≤ 0.12 µg/mL
  MIC90: ≤ 0.12 µg/mL
[41]
  MIC50: 8 µg/mL (≈ 10.9 µM)
  MIC90: > 16 µg/mL
[42]
  MIC50: 1 µg/mL (≈ 1.36 µM)
  MIC90: > 8 µg/mL
[43]
  Activity: 49.3%
[44]
  Activity: 0%
[45]
  Activity: 21.4%
[46]
  Activity: 92.9%
[47]
  Activity: 71.4%
[48]
  MIC50: 0.03 µg/mL (≈ 0.0409 µM)
  MIC90: 0.5 µg/mL (≈ 0.681 µM)
[49]
  Activity: 9.9%
